US7872067B2, “Amphiphilic polymer compositions and their use” (priority 2004, dated 2011)
Converted amounts (≈) assume the structure as drawn.

Assay: Solubility of active compounds in distilled water

## Fc1ccc([C@]2(Cn3cncn3)O[C@H]2c2ccccc2Cl)cc1 (racemic) [epoxyconazole]
  Solubility in distilled water: 6.63 µg/mL (≈ 20.1 µM)
